Laboratory results from patent publication US4614746A, “5-fluorobenzonitrile derivatives for increasing the lean meat to fat ratio and/or enhancing the growth rate of warm-blooded animals” (American Cyanamid Company, priority 1985, dated 1986).

Tests used:
Type in all cases: in vivo
CFI female mice [1] = assay: Antilipogenic evaluation of test compounds - mouse study (fat pad and body weight, 12-day feeding); details: 12 days
Procedure: CFI female mice from Carworth Farms are received when they are six-weeks old. They are housed ten to a cage in air-conditioned rooms (22° C. to 25° C.) with automatically-controlled lights, 14 hours on and ten hours off. The basal diet used in these studies is Purina Laboratory Chow (see description below) which is supplied ad libitum. The following is a description of the diet to which the growth-promoting compounds were added. Meat and bone meal, dried skimmed milk, wheat germ meal, fish meal, animal liver meal, dried beet pulp, ground extruded corn, ground oat groats, soybean meal, dehydrated alfalfa metal, cane molasses, animal fat preserved with BHA, vitamin B12 supplement, calcium pantothenate, choline chloride, folic acid, riboflavin supplement, brewer's dried yeast, thiamin, niacin, vitamin A supplement, D-activated plant sterol, vitamin E supplement, calcium carbonate, dicalcium phosphate, iodized salt, ferric ammonium citrate, iron oxide, manganous oxide, cobalt carbonate, copper oxide, zinc oxide. Water is also allowed ad libitum. Thirteen days after arrival, the mice are weighed in groups of ten and assigned at random to the different treatments. Each of the treatments is tested in three replicates, i.e., in three cages of ten mice each. There are ten cages of ten control mice each. Drugs are mixed in the diet at the dosage level indicated. Feed and water are offered ad libitum for a 12-day test period. Feed spilled is collected during the test period. At the end of the test period, the collected feed is weighed, and the mean feed consumption per cage of ten mice is determined for each treatment. The mice are weighed as a group of ten, and the weight gain determined. The mice are sacrificed by cervical dislocation. The right uterine fat pad of each mouse is removed. The fat pads for each cage of ten mice are weighed as a unit. Reduction in fat pad weights of animals is generally indicative of a reduction of total body fat of the treated animals.

wether lambs = assay: Evaluation in wether lambs (growth, feed efficiency, muscle, fat, carcass), eight weeks; details: for ADG (Average daily gain): eight weeks; for Subcutaneous Fat Depth Over Loin / Muscle Cross-Sectional Area: 12th rib; for Muscle Cross-Sectional Area: longissimus dorsi
Description: Evaluation of 3-[2-(tert-butylamino)1-hydroxyethyl]-5-fluorobenzonitrile for growth enhancement, feed efficiency improvement, increased deposition of muscle tissue and/or protein and improvement in carcass composition
To determine the effect of feeding experimental compounds to ruminants, wether lambs are randomly allotted to pens in groups of five. Three replications per treatment are used. The lambs are weighed and permitted feed and water ad libitum. The feed is weighed daily, and uneaten feed from the previous day is collected and weighed. Test lambs receive the same diet as control animals, but with the addition of experimental compound at a concentration of from 5 ppm to 20 ppm. The tests are conducted for a period of eight weeks at the end of which the lambs are again weighed, and the feed consumed calculated. The lambs are then necropsied. Eight animals per treatment are dressed, and the average cross-sectional area of the longissimus dorsi and depth of subcutaneous fat measured at the 12th rib.

CFI female mice [2] = assay: Antilipogenic evaluation of test compounds - mouse study (Example 6, procedure of Example 4); details: for effectiveness as an antilipogenic agent: versus related analogues
Procedure: CFI female mice from Carworth Farms are received when they are six-weeks old. They are housed ten to a cage in air-conditioned rooms (22° C. to 25° C.) with automatically-controlled lights, 14 hours on and ten hours off. The basal diet used in these studies is Purina Laboratory Chow (see description below) which is supplied ad libitum.
Thirteen days after arrival, the mice are weighed in groups of ten and assigned at random to the different treatments. Each of the treatments is tested in three replicates, i.e., in three cages of ten mice each. There are ten cages of ten control mice each. Drugs are mixed in the diet at the dosage level indicated. Feed and water are offered ad libitum for a 12-day test period. Feed spilled is collected during the test period. At the end of the test period, the collected feed is weighed, and the mean feed consumption per cage of ten mice is determined for each treatment. The mice are weighed as a group of ten, and the weight gain determined. The mice are sacrificed by cervical dislocation. The right uterine fat pad of each mouse is removed. The fat pads for each cage of ten mice are weighed as a unit. Reduction in fat pad weights of animals is generally indicative of a reduction of total body fat of the treated animals.
Following the procedure of Example 4, the analogues of the compounds of the invention in the subject Application are evaluated as antilipogenic agents.

[3] = system: Hubbard X Hubbard Crossbred Chicks; assay: Evaluation as feed additive in poultry (growth rate, feed utilization, carcass yield), seven weeks; details: for Gain: seven weeks; for FE (Feed efficiency): feed/gain ratio; for FE, Percent (±) Control: percent improvement
Description: Evaluation of 3-[2-(tert-butylamino)-1-hydroxyethyl]-5-fluorobenzonitrile as an animal feed additive for (1) the enhancement of the growth rate of poultry, (2) improvement in feed utilization thereby, (3) increase in the deposition of muscle tissue or protein in said birds and (4) improvement in the carcass quality of treated birds
One-day old Hubbard X Hubbard Crossbred Chicks, randomly allotted to pens of ten chicks (five males and five females) each.
Eight pens of chicks are used for unmedicated controls, and six pens of chicks are used at each level of drug. The duration of the experiment is seven weeks.
The controls are offered an unmedicated diet of Broiler Ration No. 453 (composition given below) and water ad libitum. Medicated chicks are offered the same diet containing the test drug at the levels indicated above, and water ad libitum. The weight of the chicks is determined at the beginning and on completion of the experiments. Weight gains and the amount of feed consumed are also determined. In addition, ten males and ten females from each group are randomly selected and sacrificed by decapitation. These birds were bled, the feathers, feet, and viscera removed, and the resulting carcass weighed.
The thus-obtained data are averaged and summarized in Table IV below, wherein the percent improvement in weight gains and feed/gain ratios are given.

## CCCC(C)NCC(O)c1cc(F)cc(C#N)c1 (stereo not shown) [drawing 15]
CFI female mice [1]; 50 ppm in diet
  % Change in Body Weight vs controls: +15.9%
  % Reduction in Fat Pad Weight vs Controls: -5.6%
CFI female mice [1]; 100 ppm in diet
  % Change in Body Weight vs controls: +1.2%
  % Reduction in Fat Pad Weight vs Controls: -15.5%
CFI female mice [1]; 200 ppm in diet
  % Change in Body Weight vs controls: +22.4%
  % Reduction in Fat Pad Weight vs Controls: -22.8%

## CC(C)(C)NCC(O)c1cc(F)cc(C#N)c1 (stereo not shown) [3-[2-(tert-Butylamino)-1-hydroxyethyl]-5-fluorobenzonitrile]
Wether lambs; 5 ppm in diet
  AD Feed Consumed (Average daily feed consumed): 1.43 kg/day
  AD Feed Consumed, Percent (±) Control: +2.9%
  ADG, Percent (±) Control: +11.3%
  Carcass Yield: 51.80% of live weight
  Carcass Yield, Percent (±) Control: +1.8%
  FE (Feed efficiency): 6.36
  FE, Percent (±) Control: +7.0%
  Muscle Cross-Sectional Area, Percent (±) Control: +6.8%
  Subcutaneous Fat Depth Over Loin, Percent (±) Control: +23.8%
  ADG (Average daily gain): 226 g
  Subcutaneous Fat Depth Over Loin: 3.2 cm
  Muscle Cross-Sectional Area: 17.69 cm^2
Wether lambs; 10 ppm in diet
  AD Feed Consumed (Average daily feed consumed): 1.50 kg/day
  AD Feed Consumed, Percent (±) Control: +7.9%
  ADG, Percent (±) Control: +24.6%
  Carcass Yield: 51.52% of live weight
  Carcass Yield, Percent (±) Control: +1.3%
  FE (Feed efficiency): 5.91
  FE, Percent (±) Control: +13.6%
  Muscle Cross-Sectional Area, Percent (±) Control: +11.4%
  Subcutaneous Fat Depth Over Loin, Percent (±) Control: +35.7%
  ADG (Average daily gain): 253 g
  Subcutaneous Fat Depth Over Loin: 2.7 cm
  Muscle Cross-Sectional Area: 18.44 cm^2
Wether lambs; 20 ppm in diet
  AD Feed Consumed (Average daily feed consumed): 1.39 kg/day
  AD Feed Consumed, Percent (±) Control: +0.0%
  ADG, Percent (±) Control: +15.3%
  Carcass Yield: 54.15% of live weight
  Carcass Yield, Percent (±) Control: +6.5%
  FE (Feed efficiency): 5.92
  FE, Percent (±) Control: +13.5%
  Muscle Cross-Sectional Area, Percent (±) Control: +24.2%
  Subcutaneous Fat Depth Over Loin, Percent (±) Control: +57.1%
  ADG (Average daily gain): 234 g
  Subcutaneous Fat Depth Over Loin: 1.8 cm
  Muscle Cross-Sectional Area: 20.56 cm^2
CFI female mice [2]
  effectiveness as an antilipogenic agent: markedly more effective as an antilipogenic agent than its related aanalogues
[3]; 0.25 ppm in diet
  Carcass Yield: 69.46% of live weight
  Carcass Yield, Percent (±) Control: +1.0%
  Feed Consumed: 2.576 kg
  Feed Consumed, Percent (±) Control: +0.4%
  Gain, Percent (±) Control: +2.5%
  Gain: 1.105 kg
  FE (Feed efficiency): 2.333
  FE, Percent (±) Control: +2.1%
[3]; 0.5 ppm in diet
  Carcass Yield: 68.73% of live weight
  Carcass Yield, Percent (±) Control: 0.0%
  Feed Consumed: 2.571 kg
  Feed Consumed, Percent (±) Control: +0.2%
  Gain, Percent (±) Control: +5.0%
  Gain: 1.132 kg
  FE (Feed efficiency): 2.274
  FE, Percent (±) Control: +4.6%
[3]; 1 ppm in diet
  Carcass Yield: 69.66% of live weight
  Carcass Yield, Percent (±) Control: +1.3%
  Feed Consumed: 2.573 kg
  Feed Consumed, Percent (±) Control: +0.2%
  Gain, Percent (±) Control: +1.9%
  Gain: 1.097 kg
  FE (Feed efficiency): 2.350
  FE, Percent (±) Control: +1.4%
[3]; 2 ppm in diet
  Carcass Yield: 69.30% of live weight
  Carcass Yield, Percent (±) Control: +0.8%
  Feed Consumed: 2.578 kg
  Feed Consumed, Percent (±) Control: +0.4%
  Gain, Percent (±) Control: +3.3%
  Gain: 1.114 kg
  FE (Feed efficiency): 2.315
  FE, Percent (±) Control: +3.0%

## CC(C)NCC(O)c1cc(F)cc(C#N)c1 (stereo not shown) [3-fluoro-5-[1-hydroxy-2-(isopropylamino)ethyl]-benzonitrile]
CFI female mice [2]; 100 ppm or 200 ppm in the diet
  effectiveness as an antilipogenic agent: generally more effective as an antilipogenic agent than its related analogues

## CC(C)NCC(O)c1cc(F)cc(C#N)c1 (stereo not shown) [drawing 14]
CFI female mice [2]; 100 ppm
  Mouse Test Fat Pad Weight % ± Control: -17.7%
CFI female mice [2]; 200 ppm
  Mouse Test Fat Pad Weight % ± Control: -33.3%
CFI female mice [1]; 3 ppm in diet
  % Change in Body Weight vs controls: +0.73%
CFI female mice [1]; 6 ppm in diet
  % Change in Body Weight vs controls: +40.88%
  % Reduction in Fat Pad Weight vs Controls: +5.91%
CFI female mice [1]; 12.5 ppm in diet
  % Change in Body Weight vs controls: +26.28%
  % Reduction in Fat Pad Weight vs Controls: -11.76%
CFI female mice [1]; 25 ppm in diet
  % Change in Body Weight vs controls: +29.20%
  % Reduction in Fat Pad Weight vs Controls: +9.76%
CFI female mice [1]; 50 ppm in diet
  % Change in Body Weight vs controls: +78.10%
  % Reduction in Fat Pad Weight vs Controls: +9.90%
CFI female mice [1]; 100 ppm in diet
  % Change in Body Weight vs controls: +56.93%
  % Reduction in Fat Pad Weight vs Controls: -17.71%
CFI female mice [1]; 200 ppm in diet
  % Change in Body Weight vs controls: +88.32%
  % Reduction in Fat Pad Weight vs Controls: -33.29%
